This note sets out measurements from BindingDB's records for doi:10.1016/j.ejmech.2016.09.095 (Orleans University, 2017).

Experiment [1] deals with Alpha-N-acetylglucosaminidase (Homo sapiens) (UniProt P54802). Nature of the experiment: Inhibition of alpha-hexosaminidase in human PBMC using 4-methylumbelliferyl 2-acetamido-2-deoxy-alpha-D-glucopyranoside as substrate at pH 4.3 after 17 hrs by fluorescence assay.
Experiment [2] has the same target. Kind of experiment: Inhibition of alpha-hexosaminidase (unknown origin).

Sequence of Alpha-N-acetylglucosaminidase (Homo sapiens) (P54802 whole entry, looked up): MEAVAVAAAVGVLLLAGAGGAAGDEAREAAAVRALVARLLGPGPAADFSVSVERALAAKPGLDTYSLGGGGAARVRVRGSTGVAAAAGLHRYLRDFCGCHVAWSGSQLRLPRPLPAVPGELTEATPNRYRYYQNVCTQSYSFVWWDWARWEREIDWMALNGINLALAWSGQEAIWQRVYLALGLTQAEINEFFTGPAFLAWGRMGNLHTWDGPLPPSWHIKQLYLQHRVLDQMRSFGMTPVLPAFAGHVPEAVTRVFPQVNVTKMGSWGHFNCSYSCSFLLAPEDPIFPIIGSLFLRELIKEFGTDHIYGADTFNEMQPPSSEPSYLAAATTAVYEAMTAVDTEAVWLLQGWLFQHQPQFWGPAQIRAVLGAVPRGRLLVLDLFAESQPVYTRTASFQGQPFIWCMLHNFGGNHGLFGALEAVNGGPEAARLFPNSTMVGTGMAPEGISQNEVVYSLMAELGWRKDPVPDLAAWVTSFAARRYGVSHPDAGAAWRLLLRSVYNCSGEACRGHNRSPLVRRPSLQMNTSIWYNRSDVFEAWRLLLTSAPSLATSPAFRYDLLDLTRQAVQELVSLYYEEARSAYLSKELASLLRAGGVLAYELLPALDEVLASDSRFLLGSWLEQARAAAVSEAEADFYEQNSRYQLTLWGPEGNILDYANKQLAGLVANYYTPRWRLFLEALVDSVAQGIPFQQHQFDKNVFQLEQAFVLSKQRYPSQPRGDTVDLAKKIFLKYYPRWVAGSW

In turn, `CCCCC[C@H]1NC[C@@H](O)[C@@H](O)[C@H]1CO` had a half-maximal inhibitory concentration (IC50) in experiment [1] greater than 160000 nM.

Molecule `CC(=O)N[C@@H]1[C@@H](O)[C@H](O)[C@@H](CO)N[C@@H]1COCCCCc1ccccc1` displayed a half-maximal inhibitory concentration (IC50) in experiment [2] of 100 nM.

By IC50 is commonly meant the concentration needed to halve the response being measured. Read a low IC50 as inhibition by little substance.
